From patent US10961211B2, “Isotopically-stabilized tetronimide compounds” (Midwestern University, priority 2019, dated 2021)

Test: LCMS analysis of deuterium/hydrogen exchange in solution
Format: physicochemical
Conditions: NMR sample in dmso-d6, standing at room temperature
Description: A sample of rac-1 (440 mg, 1.07 mmol) was stirred in THF (10 mL) in the presence of K2CO3 (645 mg, 4.69 mmol; 4.4 eq.) and D2O (1.77 g, 88.5 mmol; 82.6 eq.) at room temperature. The reaction progress was monitored by LCMS and Mass analysis. After 9 days a sample was taken and concentrated under reduced pressure to give 96-100% pure (LCMS, UV 215 and 254 nm respectively) racemic 1-d3 (38.9 mg) according to ^1H-NMR analysis. […] Calcd. for C18H11D3F3NO5S M: 416.39

NC1=C(OS(=O)(=O)Cc2ccccc2)C(=O)C(c2ccc(C(F)(F)F)cc2)O1 (racemic) [Compound 1-d3, 2-amino-4-oxo-5-(4-(trifluoromethyl)phenyl)-4,5-dihydrofuran-3-yl phenylmethanesulfonate]
deuterium/hydrogen exchange (isotopic stability): deuterium loss took place in dmso-d6
